Tested on: Caco-2 cells
Test: Cell uptake of coumarin-6-loaded particles by confocal microscopy
Assay type: cell-based
Settings: 6 h incubation; particles 0.5 mg/mL, coumarin-6 […] in DMEM
Experimental: To study the cell uptake of nanoparticles in Caco-2 cells, coumarin-6, as a fluorescent marker, was encapsulated into the nanoparticles. The cellular uptake of coumarin-6-loaded nanoparticles was compared with free coumarin-6 (not encapsulated). In brief, 1 mL of coumarin-6 solution in ethanol at concentrations ranging from 10 to 400 μg/mL was mixed with 9 mL 2 mg/mL chitosan solution in 0.1 M acetic acid. 9 mL of 5 mg/mL cruciferin solution (solubilized at pH 12) was added dropwise to the solution while stirring. The pH of the suspension was adjusted to 5.5, stirred for 2 h and then centrifuged at 40000 g and 4° C. for 30 min, Loaded particles pellet was collected, washed twice with water and centrifuged to remove free coumarin-6. The labelled particles were re-suspended in DMEM medium at concentrations of 0.1, 0.5 and 1 mg/mL. The size and zeta potential of the re-suspended particles were measured. Caco-2 cells (10^5 cells/well) were seeded on cover glasses placed in 6-well plates (Costar, Corning, N.Y.), and incubated until cells were about 80% confluent. 2.5 mL of labelled-particles suspensions or free coumarin-6 solution in DMEM medium was added to each well and incubated for 6 h at 37° C. Then, the cells were washed three times with PBS to remove free nanoparticles and coumarin-6. Cell membranes were stained with 10 μg/mL Alexa Fluor 594-Concanavalin A conjugate in PBS for 10 min. […]

CCN(CC)c1ccc2cc(-c3nc4ccccc4s3)c(=O)oc2c1 [free coumarin-6, Coumarin 6]
fluorescence within cells (cell uptake): no noticeable signal was detected

From patent US20180000745A1, “CRUCIFERIN COATED NANOPARTICLES” (priority 2016, published 2018)
